Measurements: patent US12589156B2, “Benzimidazole and benzimidazolone based protac compounds for the targeted degradation of leucine rich repeat kinase 2 (LRRK2)” (Arvinas Operations, Inc., priority 2023, dated 2026)

Target: T1, WT LRRK2 (Homo sapiens, UniProt Q5S007)
T1 construct: endogenous in cells; host or cells: HEK293 (endogenous LRRK2 gene knock-in tagged with HiBit; stably expressing CMV-driven firefly luciferase)
Assay: LRRK2 HiBit degradation assay (Nano-Glo Dual Luciferase) in HEK293 cells with HiBit-tagged endogenous LRRK2
Format: cell-based
Conditions: for Dmax / WT LRRK2 **Dmax (%): maximal degradation
Procedure, shortened: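 HEK293 cells carrying endogenous C-terminally HiBit-tagged LRRK2 and stably expressing CMV-driven firefly luciferase were treated for 24 h at 37° C with an 11-point 1:3 series from a 1 μM final top concentration. Nano-Glo Dual Luciferase read LRRK2-HiBit against firefly signal. Alamar Blue gave viability, and signals were normalized to DMSO median before curve fitting.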

[1] = HEK293, Table 2, HiBit-tagged LRRK2 in HEK293 cells, 24 hours treatment
[2] = HEK293, Table 3, comparison with direct comparators
[3] = Table 2, HiBit-tagged LRRK2 in HEK293 cells, 24 hours treatment, starting concentration 1 μM
[4] = Table 3, comparison with direct comparators, HiBit-tagged LRRK2 in HEK293 cells, 24 hours treatment
[5] = Table 2, HiBit-tagged LRRK2 in HEK293 cells, 24 hours treatment

T1 sequence (Q5S007 whole entry): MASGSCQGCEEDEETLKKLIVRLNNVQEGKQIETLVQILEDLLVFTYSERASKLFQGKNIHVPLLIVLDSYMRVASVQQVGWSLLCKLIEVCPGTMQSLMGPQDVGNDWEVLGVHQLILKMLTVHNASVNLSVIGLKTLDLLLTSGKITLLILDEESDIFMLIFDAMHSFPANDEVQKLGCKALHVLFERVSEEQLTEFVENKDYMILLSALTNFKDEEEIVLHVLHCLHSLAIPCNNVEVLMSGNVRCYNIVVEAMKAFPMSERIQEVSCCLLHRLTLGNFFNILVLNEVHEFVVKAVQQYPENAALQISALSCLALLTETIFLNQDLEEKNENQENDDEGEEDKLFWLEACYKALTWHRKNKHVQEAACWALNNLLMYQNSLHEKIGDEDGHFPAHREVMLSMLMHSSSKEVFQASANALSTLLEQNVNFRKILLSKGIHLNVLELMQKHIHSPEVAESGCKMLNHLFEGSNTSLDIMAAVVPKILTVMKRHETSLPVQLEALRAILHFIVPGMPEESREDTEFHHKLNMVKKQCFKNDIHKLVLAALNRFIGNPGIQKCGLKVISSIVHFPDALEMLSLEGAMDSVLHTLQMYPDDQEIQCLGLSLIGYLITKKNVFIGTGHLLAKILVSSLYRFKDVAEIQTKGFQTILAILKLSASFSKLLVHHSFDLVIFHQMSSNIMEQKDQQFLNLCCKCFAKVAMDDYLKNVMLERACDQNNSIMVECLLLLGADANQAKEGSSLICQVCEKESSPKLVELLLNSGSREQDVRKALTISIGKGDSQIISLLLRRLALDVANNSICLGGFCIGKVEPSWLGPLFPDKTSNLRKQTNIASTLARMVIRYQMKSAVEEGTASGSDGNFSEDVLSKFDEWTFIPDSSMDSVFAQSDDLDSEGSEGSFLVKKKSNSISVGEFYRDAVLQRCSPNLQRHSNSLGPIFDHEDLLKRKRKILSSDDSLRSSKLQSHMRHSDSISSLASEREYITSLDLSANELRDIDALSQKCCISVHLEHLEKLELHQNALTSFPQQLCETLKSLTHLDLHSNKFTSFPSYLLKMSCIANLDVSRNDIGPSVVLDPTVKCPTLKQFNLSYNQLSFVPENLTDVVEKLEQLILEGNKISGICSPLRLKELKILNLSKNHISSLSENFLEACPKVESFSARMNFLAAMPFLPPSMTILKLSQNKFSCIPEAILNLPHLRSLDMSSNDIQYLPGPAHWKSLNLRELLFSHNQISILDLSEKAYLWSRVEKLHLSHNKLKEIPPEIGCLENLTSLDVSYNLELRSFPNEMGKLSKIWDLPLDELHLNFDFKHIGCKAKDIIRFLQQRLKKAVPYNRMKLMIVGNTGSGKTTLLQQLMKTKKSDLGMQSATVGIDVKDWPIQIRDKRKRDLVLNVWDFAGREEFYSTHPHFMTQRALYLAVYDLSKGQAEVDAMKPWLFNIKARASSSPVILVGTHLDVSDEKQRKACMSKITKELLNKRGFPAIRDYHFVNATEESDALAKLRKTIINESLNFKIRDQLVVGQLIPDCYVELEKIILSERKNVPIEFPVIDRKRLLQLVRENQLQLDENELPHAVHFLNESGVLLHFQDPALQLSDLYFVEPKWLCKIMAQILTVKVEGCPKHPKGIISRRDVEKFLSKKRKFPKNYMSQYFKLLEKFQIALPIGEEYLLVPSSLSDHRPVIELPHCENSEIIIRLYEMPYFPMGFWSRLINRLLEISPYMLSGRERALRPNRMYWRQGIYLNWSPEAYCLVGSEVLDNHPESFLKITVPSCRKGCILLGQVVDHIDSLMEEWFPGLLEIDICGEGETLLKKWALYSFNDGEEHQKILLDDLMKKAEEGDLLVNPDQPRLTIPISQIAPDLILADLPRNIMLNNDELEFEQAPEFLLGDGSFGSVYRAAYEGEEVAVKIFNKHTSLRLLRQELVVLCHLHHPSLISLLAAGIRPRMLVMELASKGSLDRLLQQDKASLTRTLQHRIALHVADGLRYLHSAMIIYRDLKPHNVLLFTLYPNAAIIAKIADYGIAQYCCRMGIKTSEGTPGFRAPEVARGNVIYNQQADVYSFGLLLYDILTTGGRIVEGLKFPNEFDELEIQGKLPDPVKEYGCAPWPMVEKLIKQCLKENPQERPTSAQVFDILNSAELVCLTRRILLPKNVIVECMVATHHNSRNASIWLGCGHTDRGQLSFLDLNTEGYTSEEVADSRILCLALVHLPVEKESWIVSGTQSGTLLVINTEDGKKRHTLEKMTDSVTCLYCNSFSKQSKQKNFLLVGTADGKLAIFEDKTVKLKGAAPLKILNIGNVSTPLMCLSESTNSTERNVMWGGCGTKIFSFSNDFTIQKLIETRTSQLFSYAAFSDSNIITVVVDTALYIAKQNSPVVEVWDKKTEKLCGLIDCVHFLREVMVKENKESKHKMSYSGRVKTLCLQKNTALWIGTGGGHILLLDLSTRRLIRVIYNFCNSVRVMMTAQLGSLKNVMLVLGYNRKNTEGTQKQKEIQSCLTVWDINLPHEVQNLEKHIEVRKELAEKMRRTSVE

Structure (SMILES) | Dmax [1] [%] | Dmax [2] [%] | DC50 [3] [nM] | DC50 [4] [nM] | WT LRRK2 **Dmax (%) [5] [%]
Cc1nc2cc(N3CCC(O[C@H]4CC[C@H](CN5CCN(c6cc(-c7n[nH]c8ccc(OC9(C)CC9)cc78)ncn6)CC5)CC4)CC3)ccc2n1C1CCC(=O)NC1=O (stereo partly drawn) [Compound 42, rel-3-[2-methyl-5-(4-{[(1r,4r)-4-[(4-{6-[5-(1-methylcyclopropoxy)-1H-indazol-3-yl]pyrimidin-4-yl}piperazin-1-yl)methyl]cyclohexyl]oxy}piperidin-1-yl)-1H-1,3-benzodiazol-1-yl]piperidine-2,6-dione] | 42 | 52 | 5.2 | 5.2 | –
CC1(Oc2ccc3[nH]nc(-c4cc(N5CCN(C[C@H]6CC[C@H](OC7CCN(c8cc(F)c9c(c8)ncn9C8CCC(=O)NC8=O)CC7)CC6)CC5)ncn4)c3c2)CC1 (stereo partly drawn) [Compound 43, rel-3-[7-fluoro-5-(4-{[(1r,4r)-4-[(4-{6-[5-(1-methylcyclopropoxy)-1H-indazol-3-yl]pyrimidin-4-yl}piperazin-1-yl)methyl]cyclohexyl]oxy}piperidin-1-yl)-1H-1,3-benzodiazol-1-yl]piperidine-2,6-dione] | 49 | 49 | 6.2 | 6.2 | –
CC1(Oc2ccc3[nH]nc(-c4cc(N5CCN(C[C@H]6CC[C@H](OC7CCN(c8cc9ncn(C%10CCC(=O)NC%10=O)c9cc8F)CC7)CC6)CC5)ncn4)c3c2)CC1 (stereo partly drawn) [Compound 44, rel-3-[6-fluoro-5-(4-{[(1r,4r)-4-[(4-{6-[5-(1-methylcyclopropoxy)-1H-indazol-3-yl]pyrimidin-4-yl}piperazin-1-yl)methyl]cyclohexyl]oxy}piperidin-1-yl)-1H-1,3-benzodiazol-1-yl]piperidine-2,6-dione] | 50 | 50 | 6.3 | 6.3 | –
Cn1c(=O)n(C2CCC(=O)NC2=O)c2cccc(N3CCC(CN4CCN(CC5CCN(c6cc(-c7n[nH]c8cnc(OC9(C)CC9)cc78)ncn6)CC5)C(C)(C)C4)CC3)c21 (stereo not drawn) [Compound 47, 3-{4-[4-({3,3-dimethyl-4-[(1-{6-[5-(1-methylcyclopropoxy)-1H-pyrazolo[3,4-c]pyridin-3-yl]pyrimidin-4-yl}piperidin-4-yl)methyl]piperazin-1-yl}methyl)piperidin-1-yl]-3-methyl-2-oxo-2,3-dihydro-1H-1,3-benzodiazol-1-yl}piperidine-2,6-dione] | 100 | – | 24 | – | –
Cn1c(=O)n(C2CCC(=O)NC2=O)c2ccc(N3CCC(OC4CCC(CN5CCN(c6cc(-c7n[nH]c8ccc(OC(C)(C)C)cc78)ncn6)CC5)CC4)CC3)cc21 (stereo not drawn) [Compound 54, rel-3-[3-methyl-2-oxo-5-(4-{[(1r,4r)-4-[(4-{6-[5-(tert-butoxy)-1H-indazol-3-yl]pyrimidin-4-yl}piperazin-1-yl)methyl]cyclohexyl]oxy}piperidin-1-yl)-2,3-dihydro-1H-1,3-benzodiazol-1-yl]piperidine-2,6-dione] | – | – | 0.33 | – | 53
CC(C)Oc1ccc2[nH]nc(-c3cc(N4CCN(CC5CCC(OC6CCN(c7ccc8c(c7)n(C)c(=O)n8C7CCC(=O)NC7=O)CC6)CC5)CC4)ncn3)c2c1 (stereo not drawn) [Compound 55, rel-3-[3-methyl-2-oxo-5-(4-{[(1r,4r)-4-[(4-{6-[5-(propan-2-yloxy)-1H-indazol-3-yl]pyrimidin-4-yl}piperazin-1-yl)methyl]cyclohexyl]oxy}piperidin-1-yl)-2,3-dihydro-1H-1,3-benzodiazol-1-yl]piperidine-2,6-dione] | – | – | 1.5 | – | 53
CC1(Oc2ccc3[nH]nc(-c4cc(N5CCC(CN6CCN(CC7CCN(c8cccc9c8ncn9C8CCC(=O)NC8=O)CC7)CC6(C)C)CC5)ncn4)c3c2)CC1 (stereo not drawn) [Compound 69, 3-{4-[4-({3,3-dimethyl-4-[(1-{6-[5-(1-methylcyclopropoxy)-1H-indazol-3-yl]pyrimidin-4-yl}piperidin-4-yl)methyl]piperazin-1-yl}methyl)piperidin-1-yl]-1H-1,3-benzodiazol-1-yl}piperidine-2,6-dione] | 50 | 50 | 5 | 5 | –
CC1(Oc2ccc3[nH]nc(-c4cc(N5CCC(CN6CCN(CC7CCN(c8cccc9c8ncn9C8CCC(=O)NC8=O)CC7)CC6)CC5)ncn4)c3c2)CC1 (stereo not drawn) [Compound 70, 3-{4-[4-({4-[(1-{6-[5-(1-methylcyclopropoxy)-1H-indazol-3-yl]pyrimidin-4-yl}piperidin-4-yl)methyl]piperazin-1-yl}methyl)piperidin-1-yl]-1H-1,3-benzodiazol-1-yl}piperidine-2,6-dione] | 33 | 33 | 20 | 20 | –

The remaining compounds from weak to strong by DC50 [3], led by results:

Dmax [1] [%] | Dmax [2] [%] | DC50 [3] [nM] | DC50 [4] [nM] | Structure (SMILES) | WT LRRK2 **Dmax (%) [5] [%]
56 | 56 | 3.9 | 3.9 | CC1(Oc2ccc3[nH]nc(-c4cc(N5CCN(C[C@H]6CC[C@H](OC7CCN(c8ccc9c(ncn9C9CCC(=O)NC9=O)c8F)CC7)CC6)CC5)ncn4)c3c2)CC1 (stereo partly drawn) [Compound 45, rel-3-[4-fluoro-5-(4-{[(1r,4r)-4-[(4-{6-[5-(1-methylcyclopropoxy)-1H-indazol-3-yl]pyrimidin-4-yl}piperazin-1-yl)methyl]cyclohexyl]oxy}piperidin-1-yl)-1H-1,3-benzodiazol-1-yl]piperidine-2,6-dione] | –
49 | 49 | 3.7 | 3.7 | CC1(Oc2ccc3[nH]nc(-c4cc(N5CCC(CN6CCN(CC7CCN(c8ccc9c(ncn9C9CCC(=O)NC9=O)c8F)CC7)CC6(C)C)CC5)ncn4)c3c2)CC1 (stereo not drawn) [Compound 41, 3-{5-[4-({3,3-dimethyl-4-[(1-{6-[5-(1-methylcyclopropoxy)-1H-indazol-3-yl]pyrimidin-4-yl}piperidin-4-yl)methyl]piperazin-1-yl}methyl)piperidin-1-yl]-4-fluoro-1H-1,3-benzodiazol-1-yl}piperidine-2,6-dione] | –
35 | – | 1.2 | – | Cn1c(=O)n(C2CCC(=O)NC2=O)c2ccc(N3CCC(O[C@H]4CC[C@@H](CN5CCN(c6cc(-c7n[nH]c8cnc(OC9(C)CC9)cc78)ncn6)CC5)CC4)CC3)cc21 (stereo partly drawn) [Compound 68, 3-[3-methyl-2-oxo-5-(4-{[(1s,4s)-4-[(4-{6-[5-(1-methylcyclopropoxy)-1H-pyrazolo[3,4-c]pyridin-3-yl]pyrimidin-4-yl}piperazin-1-yl)methyl]cyclohexyl]oxy}piperidin-1-yl)-2,3-dihydro-1H-1,3-benzodiazol-1-yl]piperidine-2,6-dione] | –
64 | – | 1.1 | – | CC(C)n1c(=O)n(C2CCC(=O)NC2=O)c2ccc(N3CCC(CN4CCN(CC5CCN(c6cc(-c7n[nH]c8cnc(OC9(C)CC9)cc78)ncn6)CC5)C(C)(C)C4)CC3)cc21 (stereo not drawn) [Compound 51, 3-{5-[4-({3,3-dimethyl-4-[(1-{6-[5-(1-methylcyclopropoxy)-1H-pyrazolo[3,4-c]pyridin-3-yl]pyrimidin-4-yl}piperidin-4-yl)methyl]piperazin-1-yl}methyl)piperidin-1-yl]-2-oxo-3-(propan-2-yl)-2,3-dihydro-1H-1,3-benzodiazol-1-yl}piperidine-2,6-dione] | –
56 | 56 | 0.14 | 0.14 | Cn1c(=O)n(C2CCC(=O)NC2=O)c2ccc(N3CCC(CN4CCN(CC5CCN(c6cc(-c7n[nH]c8cnc(OC9(C)CC9)cc78)ncn6)CC5)C(C)(C)C4)CC3)cc21 (stereo not drawn) [Compound 48, 3-{5-[4-({3,3-dimethyl-4-[(1-{6-[5-(1-methylcyclopropoxy)-1H-pyrazolo[3,4-c]pyridin-3-yl]pyrimidin-4-yl}piperidin-4-yl)methyl]piperazin-1-yl}methyl)piperidin-1-yl]-3-methyl-2-oxo-2,3-dihydro-1H-1,3-benzodiazol-1-yl}piperidine-2,6-dione] | –
